# Where a name gives a salt, the structure may show the parent alone.
# Key:
# [1] = target: T1, Na^+/H^+-Exchanger (Oryctolagus cuniculus, UniProt P23791); assay: Inhibition of the Na+/H+ exchanger of rabbit erythrocytes (amiloride-sensitive Na+ influx, flame photometry); type: cell-based, Kaninchen; settings: Kaninchenerythrocyten; hyperosmolar salt-sucrose medium, pH 7,4, 37°C
# T1 construct: den Na^+-Influx in die Erythrocyten via Na^+/H^+-Austausch flammenphotometrisch bestimmen zu können; from tissue; host or cells: Erythrocytes in whole blood from the ear arteries of cholesterol-fed White New Zealand rabbits
# Text: Inhibition des Na^+/H^+-Exchangers von Kaninchenerythrocyten
# Weiße Neuseeland-Kaninchen (Ivanovas) erhielten eine Standard-Diät mit 2% Cholesterin für sechs Wochen, um den Na^+/H^+-Austausch zu aktivieren und so den Na^+-Influx in die Erythrocyten via Na^+/H^+-Austausch flammenphotometrisch bestimmen zu können. Das Blut wurde den Ohrarterien entnommen und durch 25 IE Kalium-Heparin ungerinnbar gemacht. Ein Teil jeder Probe wurde zur Doppelbestimmung des Hämatokrits durch Zentrifugieren benutzt. Aliquots von jeweils 100 µl dienten zur Messung des Na^+-Ausgangsgehalts der Erythrocyten.
# Um den Amilorid-sensitiven Natrium-Influx zu bestimmen, wurden 100 µl jeder Blutprobe in jeweils 5 ml eines hyperosmolaren Salz-Sucrose-Mediums (mmol/l: 140 NaCl, 3 KCl, 150 Sucrose, 0,1 Ouabain, 20 Tris-hydroxymethylaminomethan) bei pH 7,4 und 37°C inkubiert. Die Erythrocyten wurden danach dreimal mit eiskalter MgCl2-Ouabain-Lösung (mmol/l: 112 MgCl2, 0,1 Ouabain) gewaschen und in 2,0 ml destilliertem Wasser hämolysiert. Der intrazelluläre Natriumgehalt wurde flammenphotometrisch bestimmt.
# Der Na^+-Nettoinflux wurde aus der Differenz zwischen Natrium-Ausgangswerten und dem Natriumgehalt der Erythrocyten nach Inkubation errechnet. Der Amilorid-hemmbare Natrium-Influx ergab sich aus der Differenz des Natriumgehalts der Erythrocyten nach Inkubation mit und ohne Amilorid 3 x 10^-4 mol/l. Auf diese Weise wurde auch bei den erfindungsgemäßen Verbindungen verfahren.
# [2] = system: Rattenherzen; settings: isolated animal hearts (rat); Eur. Heart J. 9 (suppl.1): 167 (1988); cited from earlier work
# T1 sequence (P23791 whole entry): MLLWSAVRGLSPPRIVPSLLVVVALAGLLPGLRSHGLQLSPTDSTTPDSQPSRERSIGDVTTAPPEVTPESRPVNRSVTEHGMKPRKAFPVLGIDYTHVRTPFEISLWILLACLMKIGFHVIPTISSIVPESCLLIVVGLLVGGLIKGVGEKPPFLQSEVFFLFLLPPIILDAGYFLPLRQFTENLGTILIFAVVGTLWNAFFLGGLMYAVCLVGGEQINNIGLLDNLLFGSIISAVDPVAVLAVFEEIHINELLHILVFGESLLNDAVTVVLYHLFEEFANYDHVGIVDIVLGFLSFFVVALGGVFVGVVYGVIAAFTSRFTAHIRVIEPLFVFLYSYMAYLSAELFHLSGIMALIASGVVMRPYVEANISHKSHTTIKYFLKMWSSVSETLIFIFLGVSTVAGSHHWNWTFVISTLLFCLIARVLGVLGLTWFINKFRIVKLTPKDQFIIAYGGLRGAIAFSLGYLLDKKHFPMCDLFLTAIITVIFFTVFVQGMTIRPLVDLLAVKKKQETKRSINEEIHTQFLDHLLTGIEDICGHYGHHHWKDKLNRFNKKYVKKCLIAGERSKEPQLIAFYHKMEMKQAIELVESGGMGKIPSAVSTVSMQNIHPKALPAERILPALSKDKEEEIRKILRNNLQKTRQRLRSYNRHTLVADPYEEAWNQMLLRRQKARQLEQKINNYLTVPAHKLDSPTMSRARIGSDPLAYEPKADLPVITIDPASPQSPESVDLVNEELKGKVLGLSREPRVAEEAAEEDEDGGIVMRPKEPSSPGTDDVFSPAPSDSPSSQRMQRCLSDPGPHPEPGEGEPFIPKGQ
Structure (SMILES),IC50 [1] [nM],künstlich ausgelöstes Kammerflimmern [2]
N=C(N)NC(=O)c1nc(Cl)c(N)nc1N [Amilorid],,völlig unterdrückt
CCN(c1nc(N)c(C(=O)NC(=N)N)nc1Cl)C(C)C [Ethylisopropylamilorid],,Noch potenter als Amilorid
"CC(C)c1ccc(C(=O)N=C(N)N)cc1C(O)(O)C(F)(F)F [Beispiel 3, 4-Isopropyl-3-(1',1'-bis-hydroxy-2',2',2'-trifluor)-ethylbenzoylguanidin-hydrochlorid]",300,

# Now from value to compound, other results behind:
IC50 [1] [nM],Structure (SMILES),künstlich ausgelöstes Kammerflimmern [2]
1500,"NC(N)=NC(=O)c1ccc(C(O)(O)C(F)(F)F)cc1 [Beispiel 1, 4-(1',1'-Bishydroxy-2',2',2'-trifluor)-ethyl-benzoylguanidinhydrochlorid]",
1000,"NC(N)=NC(=O)c1ccc(F)c(C(O)(O)C(F)(F)F)c1 [Beispiel 2, 4-Fluor-3-(1',1'-Bishydroxy-2',2',2'-trifluor)ethyl-benzoylguanidinhydrochlorid]",

# Source: patent publication EP0765868A1, “Substituted bezoyl guanidines, process for their preparation, their use as antiarrhythmics or diagnostic agent as well as pharmaceuticals containing them” (HOECHST AKTIENGESELLSCHAFT, priority 1995, dated 1997)
